pKi: −log10 of the molar value.

This assay concerns the target Glutamate [NMDA] receptor. Put plainly: The compound was tested for its ability to block PCP N-methyl-D-aspartate glutamate receptor at the PCP (phencyclidine) binding site in postmortem human frontal cortex.

What is called pKi is the Ki on a negative log10 scale, so that one unit is a factor of ten. Read a low pKi as a high Ki. Molecule `CC(C)C12CC3CC(CC(N)(C3)C1)C2` gave a pKi of 5.14.
Molecule `CNC12CC3CC(CC(C3)C1)C2` gave a pKi of 4.66.
The same measure for `CC12CC3CC(C)(C1)CC(CCN)(C3)C2`: 6.10; for `CN(C)C12CC3CC(CC(C3)C1)C2`: 4.68.
The molecule `CC(C)(C)N1CCC(c2ccccc2)(c2ccccc2)CC1` [BUDIPINE] showed a pKi of 4.93.
The result for `NCC12CC3CC(CC(C3)C1)C2` reads 4.48; that for `OC(CCN1CCCC1)(c1ccccc1)C1CCCCC1` (racemic) [PROCYCLIDINE], 5.77; that for `CN1CC[C@@]23CCCC[C@@H]2[C@@H]1Cc1ccc(O)cc13` [DEXTRORPHAN], 6.66.
The same measure for `CN(C)C12CC3CC(C)(CC(C)(C3)C1)C2`: 5.35; for `NCCCCC12CC3CC(CC(C3)C1)C2`: 4.76; for `NCCC12CC3CC(CC(C3)C1)C2`: 5.42.
The result for `CCC12CC3CC(N)(C1)CC(c1ccccc1)(C3)C2` (stereo not drawn) reads 5.39.
`CCC12CC3CC(N)(C1)CC(CC)(C3)C2` showed a pKi of 6.72.
The same measure for `NCCCC12CC3CC(CC(C3)C1)C2`: 5.02; for `CCNC12CC3CC(C)(CC(C)(C3)C1)C2`: 5.76.
Regarding `c1ccc(C2(N3CCCCC3)CCCCC2)cc1` [PHENCYCLIDINE], the pKi was 7.64.
The same measure for `CNC1(c2ccccc2Cl)CCCCC1=O` (racemic) [KETAMINE]: 6.38; for `CCC12CC3CC(CC(N)(C3)C1)C2`: 6.22; for `NC12CC3CC(C1)CC(c1ccccc1)(C3)C2`: 4.82.
As for `Cc1ccccc1C(OCCN(C)C)c1ccccc1` (stereo not drawn) [ORPHENADRINE], the pKi is 5.22.
`COc1ccc2c(c1)[C@]13CCCC[C@@H]1[C@H](C2)N(C)CC3` [DEXTROMETHORPHAN] had a pKi of 5.77.
The same measure for `NC12CC3CC(CC(C3)C1)C2` [AMANTADINE]: 4.98; for `CNC12CC3CC(C)(CC(C)(C3)C1)C2`: 5.79.

The values above are taken from ChEMBL document CHEMBL1131462, “Quantitative analysis of the structural requirements for blockade of the N-methyl-D-aspartate receptor at the phencyclidine binding site” (J Med Chem, 1998).
